In one test the test system is THP-1. The test is described as follows: Growth inhibition of human THP-1 cells after 96 hrs by MTT assay. Type of test: functional, cell-based. The following applies: THP-1, 96 h. (Tetrazolium assays rely on reduction of a dye to a coloured formazan, in cell work by metabolically active cells.)
A further test concerns HL-60. Description: Growth inhibition of human HL-60 cells after 96 hrs by MTT assay. As to conditions: HL-60, 96 h. In kind it is functional, cell-based.

A word on the IC50: it is the midpoint of a concentration-inhibition curve. Low values mean higher potency, high ones lower potency. In the case of `CO[C@@H]1[C@H]2[C@H](O)O[C@@]3([C@@H](OC(C)=O)C/C(C)=C/[C@H]1OC)[C@@H]2CC3(C)C`, the IC50 in the test on THP-1 stood at 2 µM; in the test with HL-60, 6.2 µM.

(Values after ChEMBL document CHEMBL4699577, “Highly Oxygenated Caryophyllene-Type Sesquiterpenes from a Plant-Associated Fungus, Pestalotiopsis hainanensis, and Their Biosynthetic Gene Cluster” (J Nat Prod, 2020).)
